Measured values as given in ChEMBL document CHEMBL1201862, “PubChem BioAssay data set” (2004).
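A five-concentration, 48-hour dose response in 96-well plates underlies each endpoint, interpolated linearly between surrounding concentrations. At the GI50, growth is halved.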 The source made the active and inactive calls. Rule as the data show it: active = GI50 up to about 1.1 µM and inactive = higher.

Key:
Assay in all cases: NCI tumour cell line growth inhibition, 48 h
SF-539 = system: SF-539
HOP-92 = system: HOP-92
SF-295 = system: SF-295
UACC-62 = system: UACC-62
COLO 205 = system: COLO 205
NCI/ADR-RES = system: NCI/ADR-RES
HT-29 = system: HT-29
MCF7 = system: MCF7
A498 = system: A498
HCT-15 = system: HCT-15
SR = system: SR
HCT-116 = system: HCT-116
MOLT-4 = system: MOLT-4
UO-31 = system: UO-31
PC-3 = system: PC-3
DU-145 = system: DU-145
SK-MEL-28 = system: SK-MEL-28
A549 = system: A549
LOX IMVI = system: LOX IMVI
TK-10 = system: TK-10
SK-OV-3 = system: SK-OV-3
CAKI-1 = system: CAKI-1
SN12C = system: SN12C
KM12 = system: KM12
ACHN = system: ACHN
U-251 = system: U-251
UACC-257 = system: UACC-257
HCC 2998 = system: HCC 2998
M14 = system: M14
OVCAR-5 = system: OVCAR-5
MDA-MB-231 = system: MDA-MB-231
NCI-H460 = system: NCI-H460
RPMI-8226 = system: RPMI-8226
SK-MEL-5 = system: SK-MEL-5
CCRF-CEM = system: CCRF-CEM
NCI-H23 = system: NCI-H23
SW-620 = system: SW-620
K562 = system: K562
NCI-H226 = system: NCI-H226
OVCAR-8 = system: OVCAR-8
MDA-MB-435 = system: MDA-MB-435
786-0 = system: 786-0
SF-268 = system: SF-268
OVCAR-4 = system: OVCAR-4
SK-MEL-2 = system: SK-MEL-2
SNB-19 = system: SNB-19
RXF 393 = system: RXF 393
MDA-N = system: MDA-N
HL-60 = system: HL-60
IGROV-1 = system: IGROV-1
T47D = system: T47D
SNB-75 = system: SNB-75
HOP-62 = system: HOP-62
Malme-3M = system: Malme-3M
EKVX = system: EKVX
OVCAR-3 = system: OVCAR-3

Q: `N#C/N=C(/N)c1sc2nc3c(c(-c4ccc(Br)cc4)c2c1N)CCCC3` was tested. Which GI50 (SF-539) did it give?
A: Its GI50 is 22.1 µM (inactive).

Q: And the GI50 (HOP-92)?
A: Its GI50 is 21 µM (inactive).

Q: And the GI50 (SF-295)?
A: The GI50 was 11.1 µM (inactive).

Q: And the GI50 (UACC-62)?
A: The GI50 was 13.9 µM (inactive).

Q: And the GI50 (COLO 205)?
A: Its GI50 is 14.4 µM (inactive).

Q: What about the GI50 (NCI/ADR-RES) of the same molecule?
A: The GI50 was 21.4 µM (inactive).

Q: And the GI50 (HT-29)?
A: Its GI50 is 18.5 µM (inactive).

Q: What about the GI50 (MCF7) of the same molecule?
A: Its GI50 is 18.5 µM (inactive).

Q: What about the GI50 (A498) of the same molecule?
A: Its GI50 is 16.1 µM (inactive).

Q: And the GI50 (HCT-15)?
A: Its GI50 is 10.2 µM.

Q: And the GI50 (SR)?
A: The GI50 was 2.64 µM (inactive).

Q: What about the GI50 (HCT-116) of the same molecule?
A: The GI50 was 9.02 µM (inactive).

Q: And the GI50 (MOLT-4)?
A: The GI50 was 11.7 µM (inactive).

Q: And the GI50 (UO-31)?
A: Its GI50 is 19.9 µM (inactive).

Q: What about the GI50 (PC-3) of the same molecule?
A: Its GI50 is 11.6 µM (inactive).

Q: And the GI50 (DU-145)?
A: The GI50 was 21 µM (inactive).

Q: And the GI50 (SK-MEL-28)?
A: Its GI50 is 32.9 µM (inactive).

Q: What about the GI50 (A549) of the same molecule?
A: Its GI50 is 25.4 µM (inactive).

Q: And the GI50 (LOX IMVI)?
A: Its GI50 is 7.93 µM (inactive).

Q: And the GI50 (TK-10)?
A: The GI50 was 33.1 µM (inactive).

Q: What about the GI50 (SK-OV-3) of the same molecule?
A: The GI50 was 28.1 µM (inactive).

Q: What about the GI50 (CAKI-1) of the same molecule?
A: Its GI50 is 14.5 µM (inactive).

Q: And the GI50 (SN12C)?
A: The GI50 was 21.5 µM (inactive).

Q: And the GI50 (KM12)?
A: Its GI50 is 21.3 µM (inactive).

Q: What about the GI50 (ACHN) of the same molecule?
A: The GI50 was 20.6 µM (inactive).

Q: What about the GI50 (U-251) of the same molecule?
A: Its GI50 is 24.2 µM (inactive).

Q: And the GI50 (UACC-257)?
A: Its GI50 is 28.5 µM (inactive).

Q: What about the GI50 (HCC 2998) of the same molecule?
A: The GI50 was 22.1 µM (inactive).

Q: And the GI50 (M14)?
A: The GI50 was 21.8 µM (inactive).

Q: And the GI50 (OVCAR-5)?
A: The GI50 was 34.3 µM (inactive).

Q: What about the GI50 (MDA-MB-231) of the same molecule?
A: Its GI50 is 20.6 µM (inactive).

Q: What about the GI50 (NCI-H460) of the same molecule?
A: The GI50 was 21.1 µM (inactive).

Q: What about the GI50 (RPMI-8226) of the same molecule?
A: Its GI50 is 17.1 µM (inactive).

Q: And the GI50 (SK-MEL-5)?
A: The GI50 was 4.37 µM (inactive).

Q: And the GI50 (CCRF-CEM)?
A: Its GI50 is 9.84 µM (inactive).

Q: What about the GI50 (NCI-H23) of the same molecule?
A: Its GI50 is 26.1 µM (inactive).

Q: What about the GI50 (SW-620) of the same molecule?
A: The GI50 was 43.7 µM (inactive).

Q: What about the GI50 (K562) of the same molecule?
A: The GI50 was 9.23 µM (inactive).

Q: What about the GI50 (NCI-H226) of the same molecule?
A: The GI50 was 15.9 µM (inactive).

Q: What about the GI50 (OVCAR-8) of the same molecule?
A: Its GI50 is 24.8 µM (inactive).

Q: And the GI50 (MDA-MB-435)?
A: The GI50 was 2.73 µM (inactive).

Q: What about the GI50 (786-0) of the same molecule?
A: The GI50 was 15.7 µM (inactive).

Q: And the GI50 (SF-268)?
A: Its GI50 is 35 µM (inactive).

Q: And the GI50 (OVCAR-4)?
A: Its GI50 is 3.21 µM (inactive).

Q: What about the GI50 (SK-MEL-2) of the same molecule?
A: Its GI50 is 13.2 µM (inactive).

Q: What about the GI50 (SNB-19) of the same molecule?
A: The GI50 was 33.4 µM (inactive).

Q: And the GI50 (RXF 393)?
A: The GI50 was 17.7 µM (inactive).

Q: What about the GI50 (MDA-N) of the same molecule?
A: The GI50 was 3.42 µM (inactive).

Q: For `CCN1C(=O)CS/C1=N/NC(=O)C(O)(c1ccccc1)C1C=CC=CC1` (stereo not given), which GI50 (HOP-92) is on record?
A: Its GI50 is > 10 µM (inactive).

Q: And the GI50 (UACC-62)?
A: The GI50 was > 10 µM (inactive).

Q: And the GI50 (COLO 205)?
A: The GI50 was > 10 µM (inactive).

Q: What about the GI50 (HL-60) of the same molecule?
A: Its GI50 is > 10 µM (inactive).

Q: And the GI50 (NCI/ADR-RES)?
A: Its GI50 is > 10 µM (inactive).

Q: And the GI50 (MCF7)?
A: Its GI50 is > 10 µM (inactive).

Q: What about the GI50 (SR) of the same molecule?
A: The GI50 was > 10 µM (inactive).

Q: What about the GI50 (MOLT-4) of the same molecule?
A: The GI50 was > 10 µM (inactive).

Q: And the GI50 (SK-MEL-28)?
A: The GI50 was > 10 µM (inactive).

Q: And the GI50 (A549)?
A: Its GI50 is > 10 µM (inactive).

Q: What about the GI50 (SK-OV-3) of the same molecule?
A: Its GI50 is > 10 µM (inactive).

Q: And the GI50 (CAKI-1)?
A: Its GI50 is > 10 µM (inactive).

Q: And the GI50 (ACHN)?
A: Its GI50 is > 10 µM (inactive).

Q: And the GI50 (U-251)?
A: Its GI50 is > 10 µM (inactive).

Q: And the GI50 (IGROV-1)?
A: The GI50 was > 10 µM (inactive).

Q: What about the GI50 (T47D) of the same molecule?
A: The GI50 was > 10 µM (inactive).

Q: And the GI50 (M14)?
A: Its GI50 is > 10 µM (inactive).

Q: What about the GI50 (SNB-75) of the same molecule?
A: Its GI50 is > 10 µM (inactive).

Q: And the GI50 (OVCAR-5)?
A: The GI50 was > 10 µM (inactive).

Q: And the GI50 (NCI-H460)?
A: Its GI50 is > 10 µM (inactive).

Q: And the GI50 (HOP-62)?
A: Its GI50 is > 10 µM (inactive).

Q: And the GI50 (RPMI-8226)?
A: Its GI50 is > 10 µM (inactive).

Q: What about the GI50 (SK-MEL-5) of the same molecule?
A: Its GI50 is > 10 µM (inactive).

Q: And the GI50 (CCRF-CEM)?
A: The GI50 was > 10 µM (inactive).

Q: And the GI50 (NCI-H23)?
A: Its GI50 is > 10 µM (inactive).

Q: What about the GI50 (SW-620) of the same molecule?
A: Its GI50 is > 10 µM (inactive).

Q: And the GI50 (Malme-3M)?
A: Its GI50 is > 10 µM (inactive).

Q: What about the GI50 (K562) of the same molecule?
A: The GI50 was > 10 µM (inactive).

Q: What about the GI50 (MDA-MB-435) of the same molecule?
A: The GI50 was > 10 µM (inactive).

Q: And the GI50 (SF-268)?
A: The GI50 was > 10 µM (inactive).

Q: What about the GI50 (OVCAR-4) of the same molecule?
A: Its GI50 is > 10 µM (inactive).

Q: What about the GI50 (SK-MEL-2) of the same molecule?
A: Its GI50 is > 10 µM (inactive).

Q: What about the GI50 (RXF 393) of the same molecule?
A: Its GI50 is > 10 µM (inactive).

Q: Which results are given for `O=C(O)CCC(=O)c1ccc(Cl)cc1`?
A: GI50 (SF-539): > 100 µM (inactive); GI50 (HOP-92): > 100 µM (inactive); GI50 (SF-295): > 100 µM (inactive); GI50 (EKVX): > 100 µM (inactive); GI50 (COLO 205): > 100 µM (inactive); GI50 (HL-60): > 100 µM (inactive); GI50 (HT-29): > 100 µM (inactive); GI50 (SR): > 100 µM (inactive); GI50 (HCT-116): > 100 µM (inactive); GI50 (MOLT-4): > 100 µM (inactive); GI50 (UO-31): > 100 µM (inactive); GI50 (DU-145): > 100 µM (inactive); GI50 (SK-MEL-28): > 100 µM (inactive); GI50 (A549): > 100 µM (inactive); GI50 (LOX IMVI): > 100 µM (inactive); GI50 (SK-OV-3): > 100 µM (inactive); GI50 (CAKI-1): > 100 µM (inactive); GI50 (SN12C): > 100 µM (inactive); GI50 (KM12): > 100 µM (inactive); GI50 (IGROV-1): > 100 µM (inactive); GI50 (T47D): > 100 µM (inactive); GI50 (M14): > 100 µM (inactive); GI50 (OVCAR-3): > 100 µM (inactive); GI50 (SNB-75): > 100 µM (inactive); GI50 (OVCAR-5): > 100 µM (inactive); GI50 (HOP-62): > 100 µM (inactive); GI50 (RPMI-8226): > 100 µM (inactive); GI50 (SK-MEL-5): > 100 µM (inactive); GI50 (CCRF-CEM): > 100 µM (inactive); GI50 (SW-620): > 100 µM (inactive); GI50 (K562): > 100 µM (inactive); GI50 (NCI-H226): > 100 µM (inactive); GI50 (OVCAR-8): > 100 µM (inactive); GI50 (MDA-MB-435): > 100 µM (inactive); GI50 (786-0): > 100 µM (inactive); GI50 (OVCAR-4): > 100 µM (inactive); GI50 (SNB-19): > 100 µM (inactive); GI50 (RXF 393): > 100 µM (inactive); GI50 (MDA-N): > 100 µM (inactive)
